Experiments:
Assay in all cases: Post-emergence herbicidal activity, greenhouse
Format in all cases: in vivo
Conditions in all cases: Table I, 4 WAT
[1] = tested on: Barnyardgrass
From the text: (§1) A good grade of top soil is placed in aluminum pans having holes in the bottom and compacted to a depth of 0.95 to 1.27 cm. from the top of the pan. A predetermined number of seeds of each of several dicotyledonous and monocotyledonous annual plant species and/or vegetative propagules for the perennial plant species are placed on the soil and pressed into the soil surface. The seeds and/or vegetative propagules are covered with soil and leveled. The pans are then placed on a sand bench in the greenhouse and watered from below as needed. After the plants reach the desired age (two to three weeks), each pan except for the control pans is removed individually to a spraying chamber and sprayed by means of an atomizer operating at a positive air pressure of approximately 1.46 kg/cm^2 absolute. The atomizer contains 6 ml. of a solution or suspension of the chemical. In that 6 ml., is an amount of a cyclohexanone emulsifying agent mixture to give a spray solution or suspension which contains about 0.4% by weight of the emulsifier. The spray solution or suspension contains a sufficient amount of the candidate chemical in order to give application rates corresponding to those set forth in the tables. The spray solution is prepared by taking an aliquot of a 1.0% by weight stock solution or suspension of the candidate chemical in an organic solvent such as acetone or tetrahydrofuran or in water. The emulsifying agent employed is a mixture comprising 35 weight percent butylamine dodecylbenzene sulfonate and 65 weight percent of a tall oil ethylene oxide condensate having about 11 moles of ethylene oxide per mole of tall oil. The pans are returned to the greenhouse and watered as before and the injury to the plants as compared to the control is observed at approximately two and four weeks as indicated in the tables under WAT and the results recorded. In some instances, the two-week observations are omitted.
(§2) The post-emergence herbicidal activity index used in Table I is as follows:
(§3) The plant species utilized in these tests are identified by letter in accordance with the following legend: […]

[2] = tested on: Cocklebur
From the text: as §1, §2, §3

[3] = tested on: Downy Brome
From the text: as §1, §2, §3

[4] = tested on: Johnsongrass
From the text: as §1, §2, §3

[5] = tested on: Lambsquarters
From the text: as §1, §2, §3

[6] = tested on: Morningglory
From the text: as §1, §2, §3

[7] = tested on: Quackgrass
From the text: as §1, §2, §3

[8] = tested on: Velvetleaf
From the text: as §1, §2, §3

[9] = tested on: Yellow Nutsedge
From the text: as §1, §2, §3

For `CCOC(=O)CN(CP(=O)(Oc1ccc(Cl)c(C)c1)Oc1ccc(Cl)c(C)c1)SSc1ccc(OC)cc1` [VII], the “post-emergence herbicidal activity index” value ([1]; 5.6 kg/h) was 3 (75-99% control), the “post-emergence herbicidal activity index” value ([1]; 11.2 kg/h) was 3 (75-99% control) and the “post-emergence herbicidal activity index” value ([2]; 5.6 kg/h) was 1 (25-49% control). For the same molecule, the “post-emergence herbicidal activity index” value ([2]; 11.2 kg/h) was 2 (50-74% control), the “post-emergence herbicidal activity index” value ([3]; 5.6 kg/h) was 2 (50-74% control) and the “post-emergence herbicidal activity index” value ([3]; 11.2 kg/h) was 2 (50-74% control). For the same molecule, the “post-emergence herbicidal activity index” value ([4]; 5.6 kg/h) was 3 (75-99% control), the “post-emergence herbicidal activity index” value ([4]; 11.2 kg/h) was 2 (50-74% control) and the “post-emergence herbicidal activity index” value ([5]; 5.6 kg/h) was 2 (50-74% control). For the same molecule, the “post-emergence herbicidal activity index” value ([5]; 11.2 kg/h) was 2 (50-74% control), the “post-emergence herbicidal activity index” value ([6]; 5.6 kg/h) was 1 (25-49% control) and the “post-emergence herbicidal activity index” value ([6]; 11.2 kg/h) was 1 (25-49% control). The “post-emergence herbicidal activity index” value ([7]; 5.6 kg/h) was 1 (25-49% control), the “post-emergence herbicidal activity index” value ([7]; 11.2 kg/h) was 1 (25-49% control) and the “post-emergence herbicidal activity index” value ([8]; 5.6 kg/h) was 1 (25-49% control). For the same molecule, the “post-emergence herbicidal activity index” value ([8]; 11.2 kg/h) was 1 (25-49% control), the “post-emergence herbicidal activity index” value ([9]; 5.6 kg/h) was 2 (50-74% control) and the “post-emergence herbicidal activity index” value ([9]; 11.2 kg/h) was 1 (25-49% control).

Reference: patent publication US4401604A, “Process for preparing thiosulfenamide derivatives of N-phosphonomethylglycine triesters” (Monsanto Company, priority 1981, dated 1983)
